From patent US20200339953A1, “HEMATOPOIETIC STEM AND PROGENITOR CELL THERAPY” (priority 2010, published 2020)
Entries after “also recorded” stand apart in the source; their conditions may differ.

Assays:
CD34^+ cells = assay: Whole genome expression arrays (Affymetrix GeneChip); type: cell-based, human
Protocol: Human umbilical cord blood and pre-isolated CD34^+ cells from human umbilical cord blood were purchased from Stem Cell Technologies Inc. (Vancouver, BC, Canada). Cells were incubated in either low molecular weight dextran with 5% human serum albumin media (LMD/5% HSA) or Stem Span media (Stem Cells Technology Inc.) for ex vivo treatment with 16,16-dimethyl PGE2. Total RNA was isolated from incubated cells using a Pico Pure RNA Isolation Kit (Molecular Devices, Sunnyvale, Calif.).
Biotinylated amplified RNA (aRNA) was prepared using the standard protocol for MessageAmp II aRNA Amplification Kit (Applied Biosystems/Ambion, Austin, Tex.) and the optional Second Round Amplification; the copy RNA (cRNA) was transcribed into biotin labeled aRNA using MessageAmp II Biotin Enhanced Kit (Applied Biosystems/Ambion, Austin, Tex.) according to the manufacturer's instructions. Biotin labeled aRNA was purified and fragmented according to the Applied Biosystems protocols. 20 μg of fragmented aRNA was hybridized to Human Genome U133 Plus 2.0 GeneChips (Affymetrix Inc., Santa Clara, Calif.) for 16 hrs at 45° C.
The GeneChips were washed and stained in the Affymetrix Fluidics Station 450 and scanned using the Affymetrix GeneChip Scanner 3000 7G. The image data were analyzed using Affymetrix Expression Console software and default analysis settings. GeneChip expression data were normalized by log scale robust multi-array analysis (RMA) and visualized in Spotfire for Genomics 3.1 (Tibco Spotfire, Palo Alto, Calif.). Pathway analysis was performed in MetaCore. (GeneGo, St. Joseph, Mich.).
GeneChip technology was used to determine the effects of time (incubation for 5, 15, 20, 30, 40, 60, 80, 100, 120, 180, or 240 minutes), temperature (incubation at 4° C., 25° C., or 37° C.), and final 16,16-dimethyl PGE2 concentration (0.1 μm, 1 μM, 10 μM, 50 μM, or 100 μM) on cellular gene expression.
Gene expression profiles were analyzed for CD34^+ cells incubated with 10 μM 16,16-dimethyl PGE2 at 37° C. for 5, 15, 30, 60, or 120 minutes. For incubation (e.g., treatment) periods less than 120 minutes, the cells were washed in media to remove the 16,16-dimethyl PGE2 and then the cells were incubated for the remaining period in media to allow time for changes in gene expression to take place (See FIG. 5).

[1] = test system: CXCR4 cell-surface protein on CD34^+ cord blood cells; assay: CXCR4 surface expression analysis by flow cytometry; type: cell-based, human; details: 10 μM; for CD34+ cord blood cells with detectable CXCR4 expression: 2 hours at 37° C.
Protocol: CD34^+ cord blood cells were treated with 10 μM 16,16-dimethyl PGE2 or DMSO in StemSpan media for 2 hours at 37° C. or for 1 hour at 4° C. After treatment, the cells were washed in StemSpan media, centrifuged for 10 minutes at 300× g and resuspended in StemSpan media containing cytokines (e.g., CC100) to promote CD34^+ cell survival and incubated at 37° C. for 1, 6 and 24 hours. After the 1, 6 or 24 hour incubation, cells were centrifuged and resuspended in staining media containing the Lineage cocktail, 1-FITC, […], CXCR4(CD184)-PE, and incubated on ice for 15 minutes. Fresh staining media was then added to the cells, and the cells were centrifuged at 300 g for 10 minutes, twice. The stained cells were acquired on a Guava EasyCyte 8HT and analysis was performed using FloJo Software Package (Treestar).
CXCR4 cell-surface expression is important for stem cell homing to the bone marrow hematopoietic niche. […] Cells were treated for 2 hours at 37 or for 1 hour at 4° C. with either 10 μM 16,16-dimethyl PGE2 or DMSO control in StemSpan media. CXCR4 cell-surface protein expression was assessed 1, 6 and 24 hours after the end of treatment by flow cytometry.

For `CCCCC(C)(C)[C@H](O)/C=C/[C@H]1[C@H](O)CC(=O)[C@@H]1C/C=C\CCCC(=O)O` [16,16-dimethyl PGE2], the “signature gene expression changes after very short incubation” value (CD34^+ cells; 10 μM, 37° C., 5-15 minutes, assessed after 120 minutes total) was “minimal gene expression changes”, the “incubation time after which gene expression changes were apparent” value (CD34^+ cells; 10 μM, 37° C., assessed after 120 minutes total) was 30 min and the genes downregulated (CD34^+ cells; 10 μM, 120 minutes, 37° C.) was 243 genes. For the same compound, the “genes modulated at a statistically significant level, total” value (CD34^+ cells; 10 μM, 120 minutes, 37° C.) was 608 genes, the genes upregulated (CD34^+ cells; 10 μM, 120 minutes, 37° C.) was 365 genes and the “fold increase in CXCR4 expression” value (CD34^+ cells; 10 μM, 120 minutes, 37° C., relative to DMSO/vehicle treated control) was 18 fold. For the same compound, the “fold increase in CREM expression (FIG. 4)” value (CD34^+ cells; 10 μM, vs vehicle treated CD34+ cells) was 8 fold, the “Fold change (increases) AREG” value (CD34^+ cells; Amphiregulin, CD34+ cells, 10 μM, 120 minutes, 37° C. vs DMSO) was 23.32 fold and the “gene expression changes at 100 μM at 4° C. and 25° C. compared with 10 μM at 37° C.” value (CD34^+ cells; CD34+ cells) was “smaller gene expression changes”. The “gene expression associated with apoptosis or cell death” value (CD34^+ cells; CD34+ cells incubated at 37° C.) was “no increase in gene expression associated with apoptosis or cell death; also recorded: no increase in gene expression of apopotosis or cell death associated genes”, the “concentration at which the full gene expression signature was reproduced” value (CD34^+ cells; CD34+ cells, 120 minutes, 37° C., no further substantial changes above) was 10 µM and the “Fold change (increases) CXCR4” value (CD34^+ cells; CXC chemokine Receptor 4, CD34+ cells, 10 μM, 120 minutes, 37° C. vs DMSO) was 7.33 fold. The “Fold change (increases) DUSP4” value (CD34^+ cells; Dual specificity protein phosphatase 4, CD34+ cells, 10 μM, 120 minutes, 37° C. vs DMSO) was 25.75 fold, the “Fold change (increases) FOSL2” value (CD34^+ cells; Fos-related antigen 2, CD34+ cells, 10 μM, 120 minutes, 37° C. vs DMSO) was 8.11 fold and the “Fold change (increases) GEM” value (CD34^+ cells; GTP-binding protein GEM, CD34+ cells, 10 μM, 120 minutes, 37° C. vs DMSO) was 28.18 fold. The “Fold change (increases) HAS1” value (CD34^+ cells; Hyaluronan synthase 1, CD34+ cells, 10 μM, 120 minutes, 37° C. vs DMSO) was 55.83 fold, the “Fold change (increases) NR4A2” value (CD34^+ cells; Nuclear receptor related 1 protein, CD34+ cells, 10 μM, 120 minutes, 37° C. vs DMSO) was 22.30 fold and the “Fold change (increases) REN” value (CD34^+ cells; Renin, CD34+ cells, 10 μM, 120 minutes, 37° C. vs DMSO) was 19.50 fold. The “CXCR4 RNA expression” value (CD34^+ cells; WCB or CD34+ cells, 10 μM, 2 hours, 37° C. vs DMSO or 10 μM 1 hour 4° C.) was “increase in CXCR4 RNA expression”, the “Fold change (increases) CREM” value (CD34^+ cells; cAMP-responsive element modulator, CD34+ cells, 10 μM, 120 minutes, 37° C. vs DMSO) was 12.90 fold and the “Fold change (increases) COL1A1” value (CD34^+ cells; collagen, type I, alpha 1, CD34+ cells, 10 μM, 120 minutes, 37° C. vs DMSO) was 10.50 fold. The “CXCR4 expression after treatment at 4° C.” value ([1]; 4° C.) was “did not result in an increase in CXCR4 expression”, the “CD34+ cord blood cells with detectable CXCR4 expression” value ([1]; 1 hour after treatment) was 48% and the “CD34+ cord blood cells with detectable CXCR4 expression” value ([1]; 6 hours post-treatment) was 34.7%. The “level of CXCR4 compared to DMSO treated cells” value ([1]; 24 hours post-treatment) was “substantially the same”.
